{
  "source": "patent US11419335B2",
  "about": "“N-arylated analogues and uses thereof” (University of Florida Research Foundation, Incorporated, priority 2016, dated 2022)",
  "key": {"[1]": {"system": "SA-147 (clinical isolate)", "test": "MIC broth microdilution, SA-147", "assay_type": "cell-based, Staphylococcus aureus", "protocol": "(§1) The minimum inhibitory concentration (MIC) for each tested compound was determined by the broth microdilution method as recommended by the Clinical and Laboratory Standards Institute (CLSI). In a 96-well plate, eleven two-fold serial dilutions of each compound were made in a final volume of 100 μL Luria Broth. Each well was inoculated with ˜10^5 bacterial cells at the initial time of incubation, prepared from a fresh log phase culture (OD600 of 0.5 to 1.0 depending on bacterial strain). […] (MIC values were supported by spectrophotometric readings at OD600). DMSO served as our vehicle and negative control in each microdilution MIC assay. DMSO was serially diluted with a top concentration of 1% v/v.\n(§2) Each well was inoculated with ˜10^5 bacterial cells at the initial time of incubation, prepared from a fresh log phase culture (OD600 of 0.5 to 1.0 depending on bacterial strain). […] The concentration range tested for each compound during this study was 0.10 to 100 μM. DMSO served as our vehicle and negative control in each microdilution MIC assay. DMSO was serially diluted with a top concentration of 1% v/v. All MIC values were obtained from a minimum of three independent experiments."}, "[2]": {"system": "SA-138 (clinical isolate)", "test": "MIC broth microdilution, SA-138", "assay_type": "cell-based, Staphylococcus aureus", "protocol": "as §1, §2"}, "[3]": {"system": "SA-156 (clinical isolate)", "test": "MIC broth microdilution, SA-156", "assay_type": "cell-based, Staphylococcus aureus", "protocol": "as §1, §2"}, "[4]": {"system": "Acinetobacter baumannii (ATCC 1794)", "test": "MIC broth microdilution, A. baumannii 1794", "assay_type": "cell-based", "summary_of_the_method": "(§3)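 CLSI broth microdilution in Luria Broth: eleven two-fold dilutions (0.10–100 μM), ~10^5 log-phase cells per well, 16–18 h at 37 °C. MIC was the lowest concentration preventing growth, supported by OD600. DMSO up to 1% v/v was the vehicle; values come from at least three independent experiments.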"}, "MRSA BAA-44": {"system": "MRSA BAA-44", "test": "MIC broth microdilution, MRSA BAA-44", "assay_type": "cell-based, Staphylococcus aureus", "protocol": "as §1, §2"}, "[5]": {"system": "MRSA-1 (clinical isolate)", "test": "MIC broth microdilution, MRSA-1", "assay_type": "cell-based, Staphylococcus aureus", "protocol": "as §1, §2"}, "[6]": {"system": "human red blood cells (hRBC)", "test": "Hemolysis of red blood cells", "assay_type": "cell-based", "summary_of_the_method": "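hRBCs (2% suspension) exposed to compounds at 0.2–200 μM (ten-point dose-response) for 1 h at 37 °C; after centrifugation, haemoglobin release read as supernatant OD at 405 nm. DMSO set as 0% and Triton X as 100% haemolysis; HC50 from dose-response curves, three independent experiments.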"}, "[7]": {"system": "Pseudomonas aeruginosa (PAO1)", "test": "MIC broth microdilution, PAO1", "assay_type": "cell-based", "summary_of_the_method": "as §3"}, "[8]": {"system": "methicillin-resistant Staphylococcus aureus MRSA-2 (clinical isolate)", "test": "MIC broth microdilution, MRSA-2", "assay_type": "cell-based", "summary_of_the_method": "as §3"}, "[9]": {"system": "methicillin-resistant Staphylococcus epidermidis (MRSE strain ATCC 35984)", "test": "MIC broth microdilution, MRSE 35984", "assay_type": "cell-based", "summary_of_the_method": "as §3"}, "MRSA BAA-1707": {"system": "MRSA BAA-1707", "test": "MIC broth microdilution, MRSA BAA-1707", "assay_type": "cell-based, Staphylococcus aureus", "summary_of_the_method": "(§4)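 CLSI broth microdilution in Luria Broth with eleven two-fold dilutions across 0.10 to 100 μM, inoculated with ~10^5 cells from log-phase culture. Values come from at least three independent experiments.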"}, "[10]": {"system": "vancomycin-resistant Enterococcus faecium (VRE strain ATCC 700221)", "test": "MIC broth microdilution, VRE 700221", "assay_type": "cell-based", "summary_of_the_method": "as §3"}, "[11]": {"system": "methicillin-sensitive Staphylococcus aureus ATCC 29213", "test": "MIC broth microdilution, S. aureus 29213", "assay_type": "cell-based", "summary_of_the_method": "as §4"}, "[12]": {"system": "SA-129 (clinical isolate)", "test": "MIC broth microdilution, SA-129", "assay_type": "cell-based, Staphylococcus aureus", "protocol": "as §1, §2"}},
  "note": "Where two headings read alike, the source gives them in different places. Marks after values point to notes of the source that are not given here.",
  "data": [
    {"smiles": "CCCCCCCCCCCCCCCCn1cc[n+](CCO)c1C.[Br-]", "note": "[Compound 11]", "values": [
      {"measurement": "MIC SA-147", "setting": "[1]; Table 1B", "value": "1.17^a μM"},
      {"measurement": "MIC SA-147", "setting": "[1]; Table 3", "value": "1.17^a μM"},
      {"measurement": "MIC", "setting": "[2]; Table 1B", "value": 1.56, "unit": "µM"},
      {"measurement": "MIC", "setting": "[2]; Table 3", "value": 1.56, "unit": "µM"},
      {"measurement": "MIC", "setting": "[3]; Table 1B", "value": 1.56, "unit": "µM"},
      {"measurement": "MIC", "setting": "[3]; Table 3", "value": 1.56, "unit": "µM"},
      {"measurement": "MIC A. baumannii 1794", "setting": "[4]; Table 1A, in µM", "value": 6.25},
      {"measurement": "MIC A. bau. 1794", "setting": "[4]; Table 4", "value": 6.25, "unit": "µM"},
      {"measurement": "MIC", "setting": "MRSA BAA-44; Table 1B", "value": 1.56, "unit": "µM"},
      {"measurement": "MIC", "setting": "MRSA BAA-44; Table 3", "value": 1.56, "unit": "µM"},
      {"measurement": "MIC MRSA-1", "setting": "[5]; Table 1B", "value": "1.17^a μM"},
      {"measurement": "MIC MRSA-1", "setting": "[5]; Table 3", "value": "1.17^a μM"},
      {"measurement": "HC50", "setting": "[6]; Table 1A", "value": 6.8, "unit": "µM"},
      {"measurement": "RBC HC50", "setting": "[6]; Table 4, concentration required to lyse 50% of red blood cells", "value": 6.8, "unit": "µM"},
      {"measurement": "MIC PAO1", "setting": "[7]; Table 1A", "value": "> 100", "unit": "µM"},
      {"measurement": "MIC PAO1", "setting": "[7]; Table 4", "value": ">100", "unit": "µM"},
      {"measurement": "MIC MRSA-2", "setting": "[8]; Table 1A", "value": 1.56, "unit": "µM"},
      {"measurement": "MIC", "setting": "[8]; Table 1B, read-out: MIC MRSA-2", "value": 0.78, "unit": "µM"},
      {"measurement": "MRSA-2 MIC", "setting": "[8]; Table 2A", "value": 1.56, "unit": "µM"},
      {"measurement": "MIC MRSA-2", "setting": "[8]; Table 3", "value": "1.17^a μM"},
      {"measurement": "MIC MRSA-2", "setting": "[8]; Table 4", "value": 1.17, "unit": "a micromolar"},
      {"measurement": "MIC S. epidermidis MRSE 35984", "setting": "[9]; Table 1A", "value": "0.59^a"},
      {"measurement": "MRSE 35984 MIC", "setting": "[9]; Table 2A", "value": "0.59^a μM"},
      {"measurement": "MIC MRSE 35984", "setting": "[9]; Table 4", "value": 0.59, "unit": "a micromolar"},
      {"measurement": "MIC", "setting": "MRSA BAA-1707; Table 1B, read-out: MIC MRSA BAA-1707", "value": 0.39, "unit": "µM"},
      {"measurement": "MIC", "setting": "MRSA BAA-1707; Table 2A, read-out: MRSA BAA-1707 MIC", "value": 0.39, "unit": "µM"},
      {"measurement": "MIC", "setting": "MRSA BAA-1707; Table 3, read-out: MIC MRSA BAA-1707", "value": 0.39, "unit": "µM"},
      {"measurement": "MIC MRSA 1707", "setting": "MRSA BAA-1707; Table 4", "value": 0.39, "unit": "µM"},
      {"measurement": "MIC E. faecium VRE 700221", "setting": "[10]; Table 1A", "value": 1.56, "unit": "µM"},
      {"measurement": "VRE MIC", "setting": "[10]; Table 2A", "value": 1.56, "unit": "µM"},
      {"measurement": "MIC VRE 700221", "setting": "[10]; Table 4", "value": 1.56, "unit": "µM"},
      {"measurement": "MIC S. aureus 29213", "setting": "[11]; Table 1B", "value": "1.17^a μM"},
      {"measurement": "MIC S. aureus 29213", "setting": "[11]; Table 3", "value": "1.17^a μM"},
      {"measurement": "MIC", "setting": "[12]; Table 1B", "value": 1.56, "unit": "µM"},
      {"measurement": "MIC", "setting": "[12]; Table 3", "value": 1.56, "unit": "µM"}
    ]}
  ]
}
